{
  "source": "patent US20260041640A1",
  "about": "(INCYCLIX BIO, LLC, priority 2023, published 2026)",
  "assay": "Toxicity and toxicokinetics studies, dog",
  "assay_type": "in vivo, beagle dogs",
  "method": "Nominal dose values and sampling times were used for calculations. Any concentration reported as BLQ (LLOQ<1.0 ng/mL) was set equal to zero. Toxicokinetic analyses included Cmax, Tmax, AUC0-24, t1/2, RA Cmax, and RA AUC0-24.\nFollowing this, human dose exposure was simulated using a combined whole blood and plasma compartment PK model using allometry and whole blood parameter estimates for the absorption rate constants and bioavailability per animal species. Absolute dose administration was used for modeling. V1, CL, V2, and Q parameters were extrapolated to human using allometric scaling. […] Human body weight was set to 75 kg.",
  "data": [
    {"smiles": "NS(=O)(=O)c1ccc(Nc2ncc3cc4n(c3n2)C2(CCCCC2)C(=O)NN4)cc1", "note": "[INX-315]", "values": [
      {"measurement": "Absorption rate constant (KA)", "setting": "beagle, dog, in vivo", "value": 0.18, "unit": "h⁻¹"},
      {"measurement": "HED of the highest nonseverely toxic dose (HNSTD)", "setting": "dogs", "value": "16,216 mg/day"},
      {"measurement": "safety margin of 100 mg QD starting dose vs HED of HNSTD", "setting": "dogs", "value": 160, "unit": "fold"}
    ]}
  ]
}
